# Experimental data: the supplement of paper PMC10307832
# Columns and labels:
# Experiment in all cases: relative viability (nuclei count vs DMSO), 5 days (fraction); higher = more cells survive
# [1] = compound: CC1=CC(=C(N1C2=CC=C(C=C2)Cl)C)C(=O)CN3CCCCC3 [IU1-47] + Cc1cc(Nc2cc(N3CCN(C)CC3)nc(Sc3ccc(NC(=O)C4CC4)cc3)n2)n[nH]1 [Tozasertib] (partner 0.1 µM)
# In short: (§1)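 Lung cancer cell lines in 1536-well plates got either a single drug or a fixed anchor-drug dose together with five library-drug doses (not always all listed) in √10 steps, by pin tool, on the day after seeding. Nuclei were counted after 5 days, and relative viability is the treated-to-vehicle ratio of nuclei counts. Values are medians of duplicate plates.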
# [2] = compound: Cc1nc(C(=O)NCC(=O)O)c(O)c2ccc(Oc3ccccc3)cc12 [FG-4592] + CC(=O)c1c(C)c2cnc(Nc3ccc(N4CCNCC4)cn3)nc2n(C2CCCC2)c1=O [Palbociclib] (partner 0.5 µM)
# In short: as §1
# [3] = compound: Cc1nc(C(=O)NCC(=O)O)c(O)c2ccc(Oc3ccccc3)cc12 [FG-4592] + CC1(C)CCC(c2ccc(Cl)cc2)=C(CN2CCN(c3ccc(C(=O)NS(=O)(=O)c4ccc(N[C@H](CCN5CCOCC5)CSc5ccccc5)c(S(=O)(=O)C(F)(F)F)c4)cc3)CC2)C1 [Navitoclax] (partner 0.5 µM)
# In short: as §1
# [4] = compound: Cc1nc(C(=O)NCC(=O)O)c(O)c2ccc(Oc3ccccc3)cc12 [FG-4592] + C[C@]1(O)C[C@@H](c2nc(-c3ccc4ccc(-c5ccccc5)nc4c3)c3c(N)nccn32)C1 [Linsitinib] (partner 1 µM)
# In short: as §1
Cell Line,relative viability ([1]; first compound 0.08 µM),relative viability ([1]; first compound 0.253 µM),relative viability ([1]; first compound 0.8 µM),relative viability ([1]; first compound 8 µM),relative viability ([2]; first compound 0.08 µM),relative viability ([2]; first compound 0.253 µM),relative viability ([2]; first compound 0.8 µM),relative viability ([2]; first compound 8 µM),relative viability ([3]; first compound 0.08 µM),relative viability ([3]; first compound 0.253 µM),relative viability ([3]; first compound 0.8 µM),relative viability ([3]; first compound 2.53 µM),relative viability ([3]; first compound 8 µM),relative viability ([4]; first compound 0.08 µM),relative viability ([4]; first compound 0.253 µM),relative viability ([4]; first compound 0.8 µM),relative viability ([4]; first compound 2.53 µM),relative viability ([4]; first compound 8 µM),relative viability ([1]; first compound 2.53 µM),relative viability ([2]; first compound 2.53 µM)
NCI-H2087,0.225,0.224,0.287,0.241,0.284,0.203,0.198,0.187,1.01,0.946,1.04,0.98,1.03,0.865,0.713,1.13,0.878,1.14,,
LC-2-ad,0.465,0.396,0.465,0.377,0.473,0.456,0.515,0.476,0.489,0.465,0.329,0.458,0.503,0.81,0.757,0.878,0.816,0.911,0.444,0.549
NCI-H1915,0.472,0.467,0.499,0.359,0.475,0.513,0.496,0.513,0.744,0.733,0.838,0.778,0.786,1.06,1.07,1.19,1.11,1.07,,0.504
NCI-H1793,0.346,0.319,0.296,0.299,,0.256,,0.293,0.335,0.384,,0.291,0.238,0.732,0.78,,1.01,0.856,,0.39
NCI-H2023,0.329,0.363,0.366,0.291,0.334,0.323,0.315,0.286,0.991,1,1.12,0.94,0.829,0.611,0.575,0.646,0.77,0.685,0.349,0.397
COR-L 105,0.372,0.387,0.379,0.326,0.419,0.433,0.324,0.418,0.777,0.709,0.919,0.595,0.74,0.897,0.738,1.12,1.08,0.997,0.355,0.34
RERF-LC-KJ,0.495,0.567,0.522,0.405,1.02,0.89,0.937,1.04,0.87,0.691,1.06,1.07,0.622,0.835,0.958,0.919,0.901,0.82,0.452,1.05
LXF-289,0.212,0.203,0.224,0.171,0.551,0.563,0.615,0.603,0.956,0.914,1.02,0.936,0.953,0.972,0.947,1.02,0.968,1.02,0.22,0.588
PC-14,0.707,0.685,0.661,0.581,0.545,0.415,0.571,0.488,1.01,1.06,1.08,1.01,1.03,0.977,0.941,1,0.991,0.891,,0.486
NCI-H1666,0.563,0.548,0.593,0.595,0.698,0.554,0.658,0.689,1.01,0.674,1.07,0.905,0.879,0.781,0.884,0.769,0.831,0.677,0.575,0.673
NCI-H2085,0.903,0.79,0.705,0.774,0.507,0.432,0.5,0.469,1.18,1.09,1.1,1.15,1.08,0.804,0.861,0.758,0.878,0.815,0.835,0.46
NCI-H1734,0.299,0.252,0.264,0.235,0.348,0.362,0.35,0.286,0.854,0.776,0.838,0.814,0.787,0.896,0.814,0.716,0.875,0.927,,0.345
NCI-H2126,0.905,0.866,0.818,0.737,0.335,0.358,0.324,0.334,0.825,0.773,0.817,0.875,0.807,0.68,0.73,0.593,0.699,0.655,,0.372
EMC-BAC-2,0.279,0.305,0.285,0.271,0.51,0.529,0.467,0.47,1.13,1.12,1.11,1.16,1.09,0.846,0.767,0.767,0.836,0.833,0.305,0.503
NCI-H1993,0.525,0.619,0.645,0.54,0.689,0.515,,0.563,0.946,0.907,0.696,1.09,0.898,0.808,0.646,0.713,0.728,0.706,0.602,0.691
NCI-H520,0.429,0.419,0.471,0.363,0.15,0.174,0.192,0.162,1.03,1.05,1.05,1.07,0.879,0.85,0.895,1.04,0.953,0.764,0.461,0.215
NCI-H647,0.372,0.309,,0.306,0.422,0.416,0.366,0.175,1.16,1.04,1.04,0.961,1.12,1.18,1.1,1.3,1.32,1.16,0.248,0.374

Cell Line,relative viability ([1]; first compound 0.08 µM),relative viability ([1]; first compound 0.253 µM),relative viability ([1]; first compound 0.8 µM),relative viability ([1]; first compound 8 µM),relative viability ([2]; first compound 0.08 µM),relative viability ([2]; first compound 0.253 µM),relative viability ([2]; first compound 0.8 µM),relative viability ([2]; first compound 8 µM),relative viability ([3]; first compound 0.08 µM),relative viability ([3]; first compound 0.253 µM),relative viability ([3]; first compound 0.8 µM),relative viability ([3]; first compound 2.53 µM),relative viability ([3]; first compound 8 µM),relative viability ([4]; first compound 0.08 µM),relative viability ([4]; first compound 0.253 µM),relative viability ([4]; first compound 0.8 µM),relative viability ([4]; first compound 2.53 µM),relative viability ([4]; first compound 8 µM),relative viability ([1]; first compound 2.53 µM),relative viability ([2]; first compound 2.53 µM)
SK-LU-1,0.316,0.361,0.309,0.292,0.308,0.325,0.345,0.372,0.72,0.554,0.959,,0.777,1.02,0.89,0.971,,0.928,0.318,0.378
NCI-H2009,0.782,0.781,0.751,0.662,0.196,0.201,0.228,0.0739,1.2,1.18,1.21,1.05,1.22,1.19,1.08,1.28,1.21,1.19,0.77,0.24
LOU-NH91,0.638,0.693,0.702,0.592,0.534,0.514,0.54,0.544,0.709,0.624,0.635,0.711,0.617,0.92,0.83,0.755,0.938,0.907,0.737,0.517
NCI-H2405,0.753,0.801,0.755,0.692,0.454,0.449,0.48,0.442,,0.437,0.874,0.731,0.711,,0.583,0.884,0.801,0.72,0.735,0.46
LCLC-97TM1,0.217,0.235,0.251,0.198,0.254,0.215,,0.191,0.396,0.489,0.306,,0.496,0.179,0.191,0.17,,0.183,0.358,0.181
NCI-H727,0.655,0.562,0.589,0.568,0.674,0.589,0.575,0.626,0.537,0.403,0.413,0.63,0.525,0.298,0.307,0.3,0.268,0.271,0.58,0.659
H3255,0.725,0.636,0.643,0.752,0.326,0.293,0.299,0.304,0.554,0.387,0.523,0.596,0.6,0.963,0.868,0.896,1.07,0.959,0.416,0.317
SK-MES-1,1,1.03,0.906,0.935,0.331,0.287,0.284,0.327,1.15,1.18,1.32,1.25,1.39,1.07,0.895,1.06,1.07,0.957,0.868,0.32
NCI-H1437,0.413,0.396,0.396,0.347,0.313,0.314,0.299,0.243,1.07,1.09,1.16,1.01,0.852,0.995,0.976,0.99,0.95,0.786,0.398,0.312
LU99A,0.283,0.266,0.282,0.231,0.38,0.417,,0.382,0.869,0.709,0.75,0.832,0.718,0.488,0.565,0.46,0.483,0.548,0.314,0.432
HCC-827,0.458,0.424,0.449,0.383,0.438,0.417,0.402,0.467,1.03,1.01,0.992,1.02,1.09,1.02,0.895,0.984,0.975,0.945,0.409,0.507
LK-2,0.163,0.168,0.155,0.166,0.521,0.656,,0.599,0.87,0.771,0.734,0.836,0.674,0.434,0.615,0.383,0.662,0.424,0.168,0.679
HCC-366,0.15,0.217,0.132,0.112,0.365,0.367,0.311,0.291,1.07,0.903,1.12,1.1,1.04,0.443,0.571,0.551,0.693,0.517,0.154,0.437
BEN,0.499,0.444,0.49,0.506,0.433,0.44,0.463,0.475,0.0578,0.0857,0.0654,0.0822,0.0636,0.85,0.748,0.692,0.934,0.602,0.631,0.454
NCI-H23,0.364,0.341,0.427,0.341,0.628,0.45,0.501,0.453,0.832,0.786,0.809,0.744,0.708,0.611,0.501,0.635,0.496,0.463,0.376,0.547
NCI-H1395,0.739,0.692,0.835,0.718,0.585,0.615,0.597,0.485,1.37,1.01,,1.02,0.958,1.06,0.949,,1.05,0.824,0.8,0.688
